This note sets out measurements from patent publication US20040197346A1, “Materials and methods for intracellular transport and their uses” (Marie Curie Cancer Care, priority 1997, published 2004).

Assay [1] has as its system Cos-1 cells. Nature of the assay: Delivery by intercellular trafficking, immunofluorescence of transfected Cos-1 cell monolayers. It is filed as cell-based. To be noted: transfected Cos-1 cells, 48 h, methanol-fixed, anti-VP22/-p53/-epitope immunofluorescence. How it is done:
Cos-1 cells were grown in Dulbecco's modified MEM supplemented with 10% new born calf serum at 37° C. with 5% CO2.
Transfections were performed using the BES/CaCl2 method (Elliott and O'Hare, 1997) with 200 ng test plasmid with 1800 ng pUB19. Transfections were allowed to proceed for 48 h at which point the monolayers were harvested for immunofluorescence or western blot analysis.
Cell monolayers on coverslips were fixed with 100% methanol for 15 mins at room temperature and labelled as described in Elliott and O'Hare (1997). All antibodies were diluted in PBS+10% serum. VP22 was detected using a rabbit polyclonal antibody AGV30 (1:500), p53 was detected using a mouse monoclonal antibody DO-1 (Santa-Cruz Ltd), the CMV epitope was detected using a mouse monoclonal antibody CMV. LNA (Capricorn Ltd). Images were obtained using a Bio-Rad MRC600 confocal microscope.
The VP22-p53 fusion protein construct was generated by cloning a full length p53 PCR fragment C-terminal to VP22 into a unique Bam site, keeping both VP22 and the CMV epitope in frame.
We constructed an epitope-tagged full length in-frame VP22-p53 fusion protein construct (FIG. 2). This vector generates a fusion protein of approx 90 kDa when expressed in Cos-1 cells, with very little protein degradation as judged by western blot analysis (FIG. 3). […]

A short description of assay [2]: Transport activity of VP22 sub-sequences. Format: cell-based. To be noted: sub-sequences of full HSV1 VP22 sequence (1-301).

With “VP22: HSV-1 virion protein VP22, 38 kDa, with intercellular trafficking mechanism”, the “delivery by intercellular trafficking (spread into nuclei of neighbouring non-expressing cells)” value in assay [1] is listed as “clear spread to the nuclei of adjacent cells”. With “aa 60-301: polypeptide corresponding to aminoacids 60-301 of the full HSV1 VP22 sequence (1-301)”, the transport activity result in assay [2] is reported as “transport activity is present”. For the substance “aa 159-301: polypeptide corresponding to aminoacids 159-301 of the full HSV1 VP22 sequence (1-301)”, the transport activity entry in assay [2] is reported as “transport activity is present”.

With “aa 175-301: polypeptide consisting of aa 175-301 of the VP22 sequence”, the transport activity result in assay [2] was “markedly less transport activity”. For “deletion of the 34-aminoacid C-terminal sequence from VP22 of HSV1: VP22 of HSV1 lacking its 34-aminoacid C-terminal sequence”, in assay [2], the transport activity entry was “abolishes transport-activity”.
